In patent US12329876B2, “Porous bioresorbable radiopaque embolic microspheres for drug delivery” (REVA Medical, LLC, priority 2018, dated 2025):

Experiment: degradation kinetics (mass loss) of copolymers and of microbeads from copolymer blends (FIGS. 12A, 12B)
Format: physicochemical
Description: The illustrative examples of achievable degradation profile are presented on FIGS. 12A and 12B.
Adjusting ratio of iodinated structural component (PrD-diI2DAT) and rubbery component (PEG400 or PEG1000), ratio of Carbonate to Oxalate bonds in single copolymer or utilizing blends of copolymers, a wide spectrum of degradation profiles could be achieved, including multi-step degradation.

degradation kinetic (mass loss), result in words: slow degradation
Substance: Copolymer 50% PrD-di I2DAT-co-50% PEG1K with 100% carbonate bonds [Formula #4]
